Key:
Keap1 = test system: T1, Keap1; assay: intact-protein MS and MS/MS adduct mapping, UV-Vis reaction kinetics with purified Keap1-BTB (no reaction with C151S); the IC50 is from ITDRF-CETSA of Keap1-mCherry in cell lysate; assay type: binding
T1 construct: cell lysate CETSA

Cys151 = Cys151 (UniProt position 151, SMGEKCVLHVM); conditions: not stated (reduced, unmodified C151 implied); cited from earlier work

| Compound | EC50 (Keap1) [µM] | pKa (Cys151) |
| --- | --- | --- |
| Nc1ccccc1C(=O)/C=C/C(=O)O (mixture of isomers) [Kyn-CKA, (E)- and (Z)-(4-(2-aminophenyl)-4-oxobut-2-enoic acids] | 12 |  |
| Kelch-like ECH-associated protein 1 (Keap1), BTB domain (not stated for the recombinant protein (probably Homo sapiens, inferred)) |  | 6.9 |
